Source: PMC5651568, “Comparative characterization of all cellulosomal cellulases from Clostridium thermocellum reveals high diversity in endoglucanase product formation essential for complex activity” (Biotechnology for Biofuels, 2017)

Assays:
Experiment in all cases: TLC product analysis
Type in all cases: biochemical
Details in all cases: 60 °C, MOPS buffer, 10 mM CaCl2
Cel5-26H = target: T1, Cel5-26H (Acetivibrio thermocellus, UniProt P16218)
T1 construct: gene celH; signal peptide removed, GH5 and GH26 modules, dockerin kept, His-tag, E. coli BL21
T1 sequence (P16218 45-900): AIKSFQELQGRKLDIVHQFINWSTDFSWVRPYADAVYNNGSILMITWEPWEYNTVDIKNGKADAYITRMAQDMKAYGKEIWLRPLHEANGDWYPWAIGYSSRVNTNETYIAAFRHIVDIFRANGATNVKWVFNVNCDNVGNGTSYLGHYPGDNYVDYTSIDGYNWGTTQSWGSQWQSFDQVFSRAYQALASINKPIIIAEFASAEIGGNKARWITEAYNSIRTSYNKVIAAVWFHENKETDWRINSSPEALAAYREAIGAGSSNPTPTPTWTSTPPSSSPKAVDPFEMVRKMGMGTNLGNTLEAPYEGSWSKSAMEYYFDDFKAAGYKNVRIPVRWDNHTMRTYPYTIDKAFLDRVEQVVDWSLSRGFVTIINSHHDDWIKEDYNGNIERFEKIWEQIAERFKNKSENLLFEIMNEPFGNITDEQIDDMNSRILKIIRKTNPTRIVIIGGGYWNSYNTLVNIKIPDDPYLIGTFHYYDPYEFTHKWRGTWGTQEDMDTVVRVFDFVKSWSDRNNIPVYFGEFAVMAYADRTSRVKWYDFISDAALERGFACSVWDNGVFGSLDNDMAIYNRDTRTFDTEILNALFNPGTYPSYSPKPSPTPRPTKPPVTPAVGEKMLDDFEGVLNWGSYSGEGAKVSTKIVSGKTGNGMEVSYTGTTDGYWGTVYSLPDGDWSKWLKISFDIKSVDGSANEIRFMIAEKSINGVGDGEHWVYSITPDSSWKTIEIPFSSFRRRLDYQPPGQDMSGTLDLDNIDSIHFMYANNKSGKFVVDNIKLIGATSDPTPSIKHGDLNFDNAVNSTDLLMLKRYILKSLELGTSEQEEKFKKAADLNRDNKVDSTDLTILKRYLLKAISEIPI

Cel9-44J = target: T2, Cel9-44J (Acetivibrio thermocellus, UniProt A3DD30)
T2 construct: gene Cthe_0624; signal peptide removed, GH9 and GH44 modules, dockerin kept, His-tag, codon-optimised synthetic gene, E. coli BL21
T2 sequence (A3DD30 28-1601): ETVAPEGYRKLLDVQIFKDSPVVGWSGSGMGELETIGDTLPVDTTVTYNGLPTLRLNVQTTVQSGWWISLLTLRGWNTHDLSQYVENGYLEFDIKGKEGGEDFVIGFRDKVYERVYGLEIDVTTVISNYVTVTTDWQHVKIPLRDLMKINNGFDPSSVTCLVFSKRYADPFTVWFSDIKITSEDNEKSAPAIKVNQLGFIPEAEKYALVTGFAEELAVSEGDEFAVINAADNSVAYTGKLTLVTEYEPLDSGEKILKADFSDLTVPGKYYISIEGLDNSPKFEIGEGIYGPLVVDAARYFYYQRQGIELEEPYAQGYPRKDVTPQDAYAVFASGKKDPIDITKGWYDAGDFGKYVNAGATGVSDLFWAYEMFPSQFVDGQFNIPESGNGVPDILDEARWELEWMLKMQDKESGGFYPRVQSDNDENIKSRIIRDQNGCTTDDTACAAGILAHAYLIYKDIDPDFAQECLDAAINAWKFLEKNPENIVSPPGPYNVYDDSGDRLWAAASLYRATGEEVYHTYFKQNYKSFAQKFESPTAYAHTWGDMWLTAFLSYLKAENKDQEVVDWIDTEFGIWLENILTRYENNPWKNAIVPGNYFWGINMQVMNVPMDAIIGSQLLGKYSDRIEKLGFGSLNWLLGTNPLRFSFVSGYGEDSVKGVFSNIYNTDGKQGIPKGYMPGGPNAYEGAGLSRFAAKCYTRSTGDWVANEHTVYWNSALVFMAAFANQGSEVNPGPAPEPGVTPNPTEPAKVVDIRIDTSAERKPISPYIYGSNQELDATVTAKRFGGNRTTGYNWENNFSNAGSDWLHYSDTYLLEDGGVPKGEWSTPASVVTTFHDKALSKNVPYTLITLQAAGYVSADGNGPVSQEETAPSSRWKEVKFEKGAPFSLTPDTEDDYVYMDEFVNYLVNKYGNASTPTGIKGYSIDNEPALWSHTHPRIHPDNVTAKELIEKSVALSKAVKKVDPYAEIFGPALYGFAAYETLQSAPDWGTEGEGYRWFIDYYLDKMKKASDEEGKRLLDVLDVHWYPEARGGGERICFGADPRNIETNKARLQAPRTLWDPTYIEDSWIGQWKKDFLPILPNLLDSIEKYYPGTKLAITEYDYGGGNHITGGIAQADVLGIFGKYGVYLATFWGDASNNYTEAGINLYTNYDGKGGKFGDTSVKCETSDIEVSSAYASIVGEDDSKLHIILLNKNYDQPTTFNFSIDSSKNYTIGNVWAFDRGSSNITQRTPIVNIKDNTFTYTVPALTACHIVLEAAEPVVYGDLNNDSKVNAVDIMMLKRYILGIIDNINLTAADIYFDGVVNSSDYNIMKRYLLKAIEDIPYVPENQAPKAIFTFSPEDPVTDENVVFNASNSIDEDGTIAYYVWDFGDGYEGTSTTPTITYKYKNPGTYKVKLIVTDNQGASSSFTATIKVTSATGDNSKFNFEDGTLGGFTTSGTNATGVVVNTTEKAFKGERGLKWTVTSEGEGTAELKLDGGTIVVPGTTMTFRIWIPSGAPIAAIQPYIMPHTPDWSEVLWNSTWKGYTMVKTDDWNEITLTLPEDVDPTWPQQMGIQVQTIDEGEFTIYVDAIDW

Cel9D = target: T3, Cel9D (Acetivibrio thermocellus, UniProt A3DDN1)
T3 construct: gene celD; signal peptide removed, Ig-like module and dockerin kept, His-tag, E. coli BL21
T3 sequence (A3DDN1 42-649): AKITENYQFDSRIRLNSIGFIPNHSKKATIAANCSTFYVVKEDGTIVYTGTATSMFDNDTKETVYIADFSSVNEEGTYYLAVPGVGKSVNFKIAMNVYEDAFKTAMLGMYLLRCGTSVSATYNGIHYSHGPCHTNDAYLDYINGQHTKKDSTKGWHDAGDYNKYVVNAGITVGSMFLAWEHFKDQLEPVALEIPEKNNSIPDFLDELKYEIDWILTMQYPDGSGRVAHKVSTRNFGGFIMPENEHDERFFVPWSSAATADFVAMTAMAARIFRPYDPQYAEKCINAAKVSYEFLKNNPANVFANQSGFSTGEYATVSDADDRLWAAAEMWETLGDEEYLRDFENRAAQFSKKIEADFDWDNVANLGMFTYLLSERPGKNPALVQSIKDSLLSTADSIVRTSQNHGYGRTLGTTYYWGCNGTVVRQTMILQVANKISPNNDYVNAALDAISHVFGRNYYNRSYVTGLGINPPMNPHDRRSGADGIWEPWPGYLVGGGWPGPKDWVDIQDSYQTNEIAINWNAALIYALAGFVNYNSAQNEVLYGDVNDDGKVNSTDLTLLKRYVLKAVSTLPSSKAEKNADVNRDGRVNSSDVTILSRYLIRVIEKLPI

Cel9K = target: T4, Cel9K (Acetivibrio thermocellus, UniProt A3DCH1)
T4 construct: gene celK; signal peptide removed, dockerin kept, His-tag, codon-optimised synthetic gene, E. coli BL21
T4 sequence (A3DCH1 28-895): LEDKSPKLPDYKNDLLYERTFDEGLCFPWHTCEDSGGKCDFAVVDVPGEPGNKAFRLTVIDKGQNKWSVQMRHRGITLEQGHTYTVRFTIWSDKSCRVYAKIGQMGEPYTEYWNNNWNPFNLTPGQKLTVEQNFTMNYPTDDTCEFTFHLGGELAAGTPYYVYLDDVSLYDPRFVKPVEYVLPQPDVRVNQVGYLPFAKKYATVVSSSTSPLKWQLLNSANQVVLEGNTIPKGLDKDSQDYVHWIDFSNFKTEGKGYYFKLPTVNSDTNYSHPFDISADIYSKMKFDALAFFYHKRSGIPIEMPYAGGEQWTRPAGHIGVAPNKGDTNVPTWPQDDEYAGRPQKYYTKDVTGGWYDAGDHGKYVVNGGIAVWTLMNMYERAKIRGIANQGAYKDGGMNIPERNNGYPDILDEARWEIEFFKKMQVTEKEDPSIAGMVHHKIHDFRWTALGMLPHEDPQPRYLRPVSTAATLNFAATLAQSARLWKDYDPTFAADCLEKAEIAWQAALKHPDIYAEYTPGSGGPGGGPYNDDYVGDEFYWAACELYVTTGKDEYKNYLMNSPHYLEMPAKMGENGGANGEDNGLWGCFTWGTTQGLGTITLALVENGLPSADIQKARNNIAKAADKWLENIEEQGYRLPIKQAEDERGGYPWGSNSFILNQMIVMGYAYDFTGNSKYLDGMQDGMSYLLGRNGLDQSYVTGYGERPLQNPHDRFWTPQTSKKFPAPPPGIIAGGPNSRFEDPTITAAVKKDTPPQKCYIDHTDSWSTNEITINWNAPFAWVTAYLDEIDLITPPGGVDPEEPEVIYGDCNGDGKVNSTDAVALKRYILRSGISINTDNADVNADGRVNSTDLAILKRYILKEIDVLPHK

Cel9T = target: T5, Cel9T (Acetivibrio thermocellus, UniProt A3DJ82)
T5 construct: gene Cthe_2812; signal peptide removed, dockerin kept, His-tag, E. coli BL21
T5 sequence (A3DJ82 36-611): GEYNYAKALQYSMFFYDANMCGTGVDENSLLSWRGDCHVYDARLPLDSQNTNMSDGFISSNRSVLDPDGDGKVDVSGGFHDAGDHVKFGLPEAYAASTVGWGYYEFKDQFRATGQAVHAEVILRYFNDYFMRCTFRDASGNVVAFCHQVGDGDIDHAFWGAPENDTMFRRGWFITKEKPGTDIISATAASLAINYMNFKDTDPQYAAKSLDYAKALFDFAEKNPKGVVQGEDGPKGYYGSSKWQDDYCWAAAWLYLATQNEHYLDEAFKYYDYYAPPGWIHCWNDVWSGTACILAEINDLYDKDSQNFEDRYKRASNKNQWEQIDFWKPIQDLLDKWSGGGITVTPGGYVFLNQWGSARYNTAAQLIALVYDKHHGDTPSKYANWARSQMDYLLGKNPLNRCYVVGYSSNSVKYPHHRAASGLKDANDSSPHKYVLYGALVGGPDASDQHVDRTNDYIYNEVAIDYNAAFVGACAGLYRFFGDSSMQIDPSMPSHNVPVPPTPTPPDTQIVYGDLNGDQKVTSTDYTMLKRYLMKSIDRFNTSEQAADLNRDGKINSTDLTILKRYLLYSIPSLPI

Cbh9A = target: T6, Cbh9A (Acetivibrio thermocellus, UniProt A3DCH2)
T6 construct: gene Cthe_0413; signal peptide removed, dockerin kept, His-tag, E. coli BL21
T6 sequence (A3DCH2 28-1224): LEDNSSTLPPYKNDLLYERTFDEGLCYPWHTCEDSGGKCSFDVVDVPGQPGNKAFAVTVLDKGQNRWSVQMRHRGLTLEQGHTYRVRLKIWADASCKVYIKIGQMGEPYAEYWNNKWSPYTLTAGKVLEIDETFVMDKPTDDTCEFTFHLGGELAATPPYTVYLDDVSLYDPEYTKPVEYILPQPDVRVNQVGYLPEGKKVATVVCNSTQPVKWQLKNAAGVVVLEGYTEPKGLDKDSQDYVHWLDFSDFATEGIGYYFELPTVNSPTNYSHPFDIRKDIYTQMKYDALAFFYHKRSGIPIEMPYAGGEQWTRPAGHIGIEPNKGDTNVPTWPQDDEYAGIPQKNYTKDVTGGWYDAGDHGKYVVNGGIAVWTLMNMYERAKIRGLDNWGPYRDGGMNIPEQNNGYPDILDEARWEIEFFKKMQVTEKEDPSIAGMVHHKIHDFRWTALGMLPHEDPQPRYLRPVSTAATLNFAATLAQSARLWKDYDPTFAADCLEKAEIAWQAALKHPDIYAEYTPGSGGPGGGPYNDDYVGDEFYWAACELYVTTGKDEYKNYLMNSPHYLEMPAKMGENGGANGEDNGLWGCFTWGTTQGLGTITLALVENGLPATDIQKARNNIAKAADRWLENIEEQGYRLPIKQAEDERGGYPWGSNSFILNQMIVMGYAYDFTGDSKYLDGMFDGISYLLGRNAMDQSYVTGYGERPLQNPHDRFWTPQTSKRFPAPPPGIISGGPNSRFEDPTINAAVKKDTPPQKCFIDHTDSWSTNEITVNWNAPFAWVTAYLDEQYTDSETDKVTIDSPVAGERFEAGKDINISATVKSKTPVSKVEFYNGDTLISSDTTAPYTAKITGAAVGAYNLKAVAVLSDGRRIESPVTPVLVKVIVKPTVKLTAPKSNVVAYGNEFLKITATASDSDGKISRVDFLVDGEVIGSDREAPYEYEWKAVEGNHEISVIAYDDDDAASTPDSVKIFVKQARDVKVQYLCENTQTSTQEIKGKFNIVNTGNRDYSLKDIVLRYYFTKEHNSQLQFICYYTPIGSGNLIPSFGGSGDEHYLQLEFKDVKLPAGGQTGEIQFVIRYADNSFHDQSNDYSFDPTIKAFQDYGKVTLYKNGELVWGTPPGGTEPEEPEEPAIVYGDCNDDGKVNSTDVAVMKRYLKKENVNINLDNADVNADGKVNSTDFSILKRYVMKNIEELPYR

Q: For `OC[C@H]1O[C@@H](O[C@H]2[C@H](O)[C@@H](O)[C@H](O[C@H]3[C@H](O)[C@@H](O)[C@H](O[C@H]4[C@H](O)[C@@H](O)[C@H](O[C@H]5[C@H](O)[C@@H](O)[C@H](O[C@H]6[C@H](O)[C@@H](O)C(O)O[C@@H]6CO)O[C@@H]5CO)O[C@@H]4CO)O[C@@H]3CO)O[C@@H]2CO)[C@H](O)[C@@H](O)[C@@H]1O` (stereo partly drawn) [cellohexaose], which TLC product analysis (Cel5-26H) is on record?
A: characterized by their indiscriminate scission of cello-oligosaccharides

Q: What about the TLC product analysis (Cel9-44J) of the same molecule?
A: characterized by their indiscriminate scission of cello-oligosaccharides

Q: And the TLC product analysis (Cel9D)?
A: confirmed by the hydrolysis products from cello-oligosaccharides as substrate

Q: And the TLC product analysis (Cel9K)?
A: released specifically cellobiose as the only product over time (Cel48S, Cel9K, and Cbh9A)

Q: What about the TLC product analysis (Cel9T) of the same molecule?
A: characterized by their indiscriminate scission of cello-oligosaccharides

Q: And the TLC product analysis (Cbh9A)?
A: released specifically cellobiose as the only product over time (Cel48S, Cel9K, and Cbh9A)
